Laboratory results reported in patent publication US20230381157A1, “RIFABUTIN FOR THE TREATMENT OF ACINETOBACTER BAUMANNII” (University of Southern California, priority 2018, published 2023).
Converted amounts (≈) assume the structure as drawn. “And” between values parts separate entries of the source, which are not always exact repeats. Identical values can stand only once. Like-named read-outs stand apart in the source and are kept apart here.

Tests used:
A. baumannii ATCC 17978 = test: IC50 dose response, inhibition of bacterial growth (BacTiter-Glo viability); type: cell-based, Acinetobacter baumannii; details: Acinetobacter baumannii, 11-point dose response, read-out: IC50
A. baumannii HUMC1 [1] = test: as above; type: cell-based, Acinetobacter baumannii; details: Acinetobacter baumannii, 11-point dose response, read-out: IC50
A. baumannii HUMC1 [2] = test: MIC, broth microdilution in MHII, RPMI or modified media; type: cell-based, Acinetobacter baumannii
A. baumannii [3] = test: MIC, broth microdilution, A. baumannii clinical isolates / strain panel; type: cell-based, Acinetobacter baumannii; details: Acinetobacter baumannii; for MIC: read-out: MIC; for MIC50 / MIC90: A. baumannii strain panel; for MIC50: read-out: MIC50; for MIC90: read-out: MIC90
S. aureus LAC [4] = test: microbe, parasite or virus in culture; type: cell-based; details: Staphylococcus aureus, read-out: MIC
K. pneumonia = test: MIC, broth microdilution; type: cell-based; details: Klebsiella pneumoniae, read-out: MIC
E. coli = test: MIC, broth microdilution; type: cell-based; details: Escherichia coli, E. coli JJ1886
A. baumannii [5] = type: cell-based, Acinetobacter baumannii
S. aureus LAC [6] = type: cell-based, Staphylococcus aureus; details: TSA
E. coli JJ1886 = type: cell-based, Escherichia coli; details: TSA
A. baumannii HUMC1 [7] = type: in vivo, mouse
A. baumannii HUMC1 [8] = type: in vivo, mouse; remark: listed apart in the source
Acinetobacter baumannii = test: Galleria mellonella infection model; type: in vivo; details: Galleria mellonella; doses as high as 5 mg/kg
HEK293T = test: Specificity: mammalian cell cytotoxicity / inhibition of bacteria growth (CC50/IC50)

## CO[C@H]1/C=C/O[C@@]2(C)Oc3c(C)c(O)c4c(O)c(c(/C=N/N5CCN(C)CC5)c(O)c4c3C2=O)NC(=O)/C(C)=C\C=C\[C@H](C)[C@H](O)[C@@H](C)[C@@H](O)[C@@H](C)[C@H](OC(C)=O)[C@@H]1C [rifampin]
A. baumannii ATCC 17978; ATCC17978, 24 h, ATCC 17978, RPMI + 50% Serum
  IC50: 18.2 µM
A. baumannii ATCC 17978; ATCC17978, ATCC 17978, RPMI + 50% Serum
  IC50: 18.2 µM
A. baumannii ATCC 17978; ATCC17978, ATCC 17978, RPMI
  IC50: 13.8 µM
A. baumannii HUMC1 [1]; HUMC1, 24 h, HUMC1, RPMI + 50% Serum
  IC50: 7.99 µM
A. baumannii HUMC1 [1]; HUMC1, HUMC1, RPMI + 50% Serum
  IC50: 7.99 µM
A. baumannii HUMC1 [1]; HUMC1, HUMC1, RPMI
  IC50: 11 µM
A. baumannii HUMC1 [2]; Acinetobacter baumannii, HUMC1, HUMC1, 0.01% Triton X-100, read-out: MIC
  MIC: 2 µg/mL (≈ 2.43 µM)
A. baumannii HUMC1 [2]; Acinetobacter baumannii, HUMC1, HUMC1, 0.05% Tween 20, MHII, read-out: MIC
  MIC: 2 µg/mL (≈ 2.43 µM)
A. baumannii HUMC1 [2]; Acinetobacter baumannii, HUMC1, HUMC1, 25° C., MHII, read-out: MIC
  MIC: 2 µg/mL (≈ 2.43 µM)
A. baumannii HUMC1 [2]; Acinetobacter baumannii, HUMC1, HUMC1, 25° C., RPMI, read-out: MIC
  MIC: 2 µg/mL (≈ 2.43 µM)
A. baumannii HUMC1 [2]; Acinetobacter baumannii, HUMC1, HUMC1, MHII (CAMHB), read-out: MIC
  MIC: 4 µg/mL (≈ 4.86 µM)
A. baumannii HUMC1 [2]; Acinetobacter baumannii, HUMC1, HUMC1, RPMI + Essential Amino Acid Solution (50×), read-out: MIC
  MIC: 6.25 µg/mL
A. baumannii HUMC1 [2]; Acinetobacter baumannii, HUMC1, HUMC1, RPMI + L-Histidine 0.5 mM
  MIC: 12.5 µg/mL
A. baumannii HUMC1 [2]; Acinetobacter baumannii, HUMC1, HUMC1, RPMI + L-Tryptophan 0.125 mM
  MIC: 12.5 µg/mL
A. baumannii HUMC1 [2]; HUMC1, 25° C. or 30° C. compared to 37° C., MHII or RPMI
  difference in MICs at lower temperature: did not observe any difference
A. baumannii HUMC1 [2]; HUMC1, MHII (CAMHB in b45)
  MIC: 3.125 µg/mL (≈ 3.8 µM)
A. baumannii HUMC1 [2]; HUMC1, MHII (CAMHB in b45), listed as Rifampin
  MIC: 3.125 µg/mL (≈ 3.8 µM)
A. baumannii HUMC1 [2]; HUMC1, MHII (CAMHB), listed as RIF
  MIC: 2 µg/mL and 3.125 µg/mL
A. baumannii HUMC1 [2]; HUMC1, RPMI
  MIC: 3.125 µg/mL (≈ 3.8 µM)
A. baumannii HUMC1 [2]; HUMC1, RPMI, listed as Rifampin
  MIC: 3.125 µg/mL (≈ 3.8 µM)
A. baumannii [3]; A. baumannii (strain not named), MHII
  MIC: 4 µg/mL (≈ 4.86 µM)
A. baumannii [3]; A. baumannii (strain not named), RPMI with serum
  MIC: 4 µg/mL (≈ 4.86 µM)
A. baumannii [3]; A. baumannii VA-AB21, MHII
  MIC: 3.12 µg/mL (≈ 3.8 µM)
A. baumannii [3]; A. baumannii VA-AB21, RPMI
  MIC: > 6.12 µg/mL
A. baumannii [3]; CAMHB
  MIC50: 3.13 µg/mL (≈ 3.8 µM)
  MIC90: 6.25 µg/mL (≈ 7.59 µM)
A. baumannii [3]; RPMI
  MIC50: 12.5 µg/mL (≈ 15.2 µM)
  MIC90: 25 µg/mL (≈ 30.4 µM)
A. baumannii [3]; ATCC17978, A. baumannii ATCC17978 and HUMC1, MHII
  MIC: 2 µg/mL (≈ 2.43 µM)
A. baumannii [3]; ATCC17978, A. baumannii ATCC17978 and HUMC1, RPMI
  MIC: 8 µg/mL (≈ 9.72 µM)
S. aureus LAC [4]; MHII
  MIC: 0.025 µg/mL (≈ 0.0304 µM)
S. aureus LAC [4]; RPMI
  MIC: 0.05 µg/mL (≈ 0.0608 µM)
K. pneumonia; K. pneumonia KP-3, MHII
  MIC: 3.12 µg/mL (≈ 3.8 µM)
K. pneumonia; K. pneumonia KP-3, RPMI
  MIC: 1.56 µg/mL (≈ 1.9 µM)
K. pneumonia; K. pneumonia KPC-KP1, MHII
  MIC: 25 µg/mL (≈ 30.4 µM)
K. pneumonia; K. pneumonia KPC-KP1, RPMI
  MIC: 50 µg/mL (≈ 60.8 µM)
E. coli; MHII
  MIC: 6.25 µg/mL (≈ 7.59 µM)
E. coli; RPMI
  MIC: 25 µg/mL (≈ 30.4 µM)
A. baumannii [5]; A. baumannii ABNIH1, MHII
  Mutation Frequency: 4.17E−08
A. baumannii [5]; A. baumannii ATCC17978, MHII
  Mutation Frequency: 5.14E−09
A. baumannii [5]; A. baumannii ATCC17978, TSA
  Mutation Frequency: 7.95E−09
A. baumannii [5]; A. baumannii HUMC1, MHII
  Mutation Frequency: 9.19E−09
A. baumannii [5]; A. baumannii HUMC1, TSA
  Mutation Frequency: 1.44E−08
A. baumannii [5]; A. baumannii LAC-4, MHII
  Mutation Frequency: 2.62E−08
S. aureus LAC [6]
  Mutation Frequency: 9.49E−08
E. coli JJ1886
  Mutation Frequency: 2.21E−08
A. baumannii HUMC1 [7]; 5 mg/kg for 3 days, 2 days post infection
  survival: < 20%
A. baumannii HUMC1 [7]; 5 mg/kg/daily for 3 days, oral gavage
  survival: did not protect from mortality
A. baumannii HUMC1 [7]; 5 mg/kg/daily for 3 days, oral gavage, listed as RFP
  survival: did not improve survival vs. control
A. baumannii HUMC1 [7]; 5 mg/kg/daily for 3 days, oral gavage, listed as RIF
  survival: did not do any better as compared to the PBS control group
A. baumannii HUMC1 [7]; 5 mg/kg/daily for 3 days, oral gavage, lungs at 24 hrs post infection
  lung CFUs: did not reduce CFUs compared to control
A. baumannii HUMC1 [7]; murine pneumonia, 5 mg/kg, day 7 post-infection
  bacterial burden: ~6.5 Log10(CFU/mg lung)
A. baumannii HUMC1 [8]; IV infection, RIF 10 or 30 mg/kg/daily for 3 days
  protection at minimum dose test: only partially protective
A. baumannii HUMC1 [8]; bacteremia model, 10 mg/kg for 3 days, 2 days post infection, PBS/control 0%
  survival: about 50%
A. baumannii HUMC1 [8]; murine bacteremia, 10 mg/kg
  protection: 50%
Acinetobacter baumannii
  protection: only a partial protection
HEK293T; IC50 vs A. baumannii ATCC 17978, RPMI + 50% serum
  Specificity HEK293T (CC50/IC50): 2.741
HEK293T; IC50 vs A. baumannii ATCC 17978, RPMI alone
  Specificity HEK293T (CC50/IC50): 3.621
HEK293T; IC50 vs A. baumannii HUMC1, RPMI + 50% serum
  Specificity HEK293T (CC50/IC50): 6.256
HEK293T; IC50 vs A. baumannii HUMC1, RPMI alone
  Specificity HEK293T (CC50/IC50): 4.538
